# In patent US6399599B1, “Substituted 2-oxo-1,4-diazacycloalkanes” (Novartis AG, priority 1999, dated 2002):
# Tested on: allergic contact dermatitis (oxazolone, elicitation phase)
# Test: Allergic contact dermatitis (ACD), oxazolone
# Assay type: in vivo
# Settings: female NMRI mice, 24 h after challenge
# Description: ii) Allergic Contact Dermatitis (ACD)
# Groups of 8 female NMRI mice are sensitized on the shaved abdomen with 50 —l of oxazolone (Sigma, 2% in acetone) and challenged with 10 —l of 0.2 or 2.0% oxazolone on the inner surface of the right ear 7 days later. The low concentration of oxazolone for induction of the elicitation phase is used for testing compounds on […] whereas the high concentration is applied for […] testing. The unchallenged left ears serve as normal controls and dermatitis is evaluated from the individual differences in pinnal weight, which is taken as a measure of increase in inflammatory swelling 24 h after the challenge. Dermatitis is evaluated in test- and for comparison in control groups. The test groups are treated with the test compounds either orally (twice, 2 h and immediately before challenge), subcutaneously (immediately before challenge) or topically (30 min after challenge at the site of elicitation of the ACD); the controls are treated similarly with the vehicles alone. […] The data of the test-and the vehicle-treated control groups are statistically analysed by ANOVA followed by Dunnet T-test (normal distribution or data) or by H and U-test, respectively. […]
compound,measurement,setting,value
"C[C@@H]1CCN([C@H](Cc2cccc3ccccc23)C(N)=O)C(=O)[C@H](c2ccccc2)N1C(=O)Cc1ccc2ncccc2c1 [Example 3, (R)-2-[(3S,5R)-5Methyl-2-oxo-3-phenyl-4-(quinolin-6-yl-acetyl)-[1,4]diazepan-1-yl]-3-(naphthalen-1-yl)-propionamide]",inhibiting effect in allergic contact dermatitis (pinnal weight),applied topically at a dose of 10 mM,50%
same,inhibiting effect in allergic contact dermatitis (pinnal weight),p.o. at a dose of 2×3 mg/kg,40%
